Test results from patent publication US9890117B2, “Benzamide compounds and related methods of use” (Northwestern University, priority 2012, dated 2018).
Converted amounts (≈) assume the structure as drawn. One block for each compound: values may come before it.

What was measured:
[1] = cited from earlier work
SIRT1 = target: T1, SIRT1 (Homo sapiens, UniProt Q96EB6); assay: Fluor-de-Lys biochemical sirtuin deacetylation assay, SIRT1 counter-screen; settings: for SIRT1 inhibition: 10 μM counter-screen
T1 sequence (Q96EB6 1-747): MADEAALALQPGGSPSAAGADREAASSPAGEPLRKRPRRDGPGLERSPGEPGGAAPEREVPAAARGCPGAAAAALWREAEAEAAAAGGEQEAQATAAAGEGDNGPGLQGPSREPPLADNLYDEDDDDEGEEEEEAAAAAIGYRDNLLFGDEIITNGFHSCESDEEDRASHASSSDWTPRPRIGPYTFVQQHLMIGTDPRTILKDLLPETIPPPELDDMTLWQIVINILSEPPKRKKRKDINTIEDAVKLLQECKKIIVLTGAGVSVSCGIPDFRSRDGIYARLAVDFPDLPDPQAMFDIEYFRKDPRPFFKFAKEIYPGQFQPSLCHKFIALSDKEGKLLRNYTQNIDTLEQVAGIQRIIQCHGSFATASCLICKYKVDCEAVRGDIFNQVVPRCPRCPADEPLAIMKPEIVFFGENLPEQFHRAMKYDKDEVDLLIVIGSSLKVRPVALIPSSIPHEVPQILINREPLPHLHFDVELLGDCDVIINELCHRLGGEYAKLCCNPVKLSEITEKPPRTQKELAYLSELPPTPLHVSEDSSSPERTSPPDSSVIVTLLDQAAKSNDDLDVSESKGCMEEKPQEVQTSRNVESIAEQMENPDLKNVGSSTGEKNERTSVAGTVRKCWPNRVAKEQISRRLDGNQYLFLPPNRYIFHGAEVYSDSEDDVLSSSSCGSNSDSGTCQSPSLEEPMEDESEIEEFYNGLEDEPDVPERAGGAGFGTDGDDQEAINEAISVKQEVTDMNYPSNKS
Procedure: (§1) To evaluate the potency and selectivity of the synthesized compounds robust, sensitive, and quantitative, biochemical sirtuin deacetylation assays were employed. (SIRT2 then SIRT1 and SIRT3 for selectivity). Sirtuin activity was assessed using the Fluor-de-Lys assay with recombinant active enzymes SIRT1, SIRT2, and the catalytically active fragment of SIRT3, as described in the literature. […] AK-1 was included as the reference compound with each assay. […] Those compounds also were subjected to SIRT1 and SIRT3 assays to determine sirtuin selectivity.
(§2) As discussed above, Tables 1-10 are presented and followed by details relating to the synthesis and characterization of compounds prepared. Inhibition assays and related testing of such compounds are conducted according to well-known literature protocols including those found in Silverman, et al., Biorg. Med. Chem. Lett. 22 (2012) 2789-2793 and the references cited therein, such references and tests incorporated herein by reference.

[2] = target: T2, catalytically active fragment of SIRT3 (Homo sapiens, UniProt Q9NTG7); assay: Fluor-de-Lys biochemical sirtuin deacetylation assay, SIRT3 counter-screen; settings: 10 μM counter-screen
T2 construct: the catalytically active fragment of SIRT3
T2 sequence (Q9NTG7 118-380 limits assumed): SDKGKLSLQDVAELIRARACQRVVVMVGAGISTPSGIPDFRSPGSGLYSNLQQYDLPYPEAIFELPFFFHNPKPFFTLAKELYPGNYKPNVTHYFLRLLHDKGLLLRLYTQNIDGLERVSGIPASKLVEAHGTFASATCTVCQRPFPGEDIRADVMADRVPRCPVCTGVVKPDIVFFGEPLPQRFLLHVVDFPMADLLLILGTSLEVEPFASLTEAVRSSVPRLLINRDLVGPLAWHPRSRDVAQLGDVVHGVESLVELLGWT
Procedure: as §1, §2

[3] = Microsomal stability screen, mouse; settings: 1 μM
[4] = system: α-tubulin K40 acetylation (SIRT2 substrate) in N2a cells; assay: α-tubulin K40 acetylation (Western) in neuronal N2a cells; assay type: cell-based; settings: N2a cells, 10, 25, 50 μM, 6 h
Procedure: FIGS. 2A-B. Cell-based assay for evaluating the bioactivity of SIRT2 inhibitors. A) Extracts from neuronal N2a cells treated with 61 and 64 for 6 h were resolved on SDS-PAGE and analyzed by Western analysis using antibodies specific to acetylated α-tubulin, and normalized to GADPH and total α-tubulin (not shown) levels.
To assess SIRT2 inhibition activity in cells, an increase in α-tubulin K40 acetylation (α-tubulin is a substrate for SIRT2) in neuronal N2a and in wild type and HD ST141 cell lines was measured. In this bioactivity test, extracts from compound-treated cells were resolved on SDS-PAGE and subjected to Western analysis using primary antibodies specific to K40 acetylated α-tubulin. Trichostatin A (TSA), a potent HDAC inhibitor, was used as a positive control. To normalize the levels of acetylated α-tubulin we used total α-tubulin and GADPH proteins, detected by Western reactive antibodies specific to total α-tubulin and GADPH. […] FIGS. 2A-B show the bioactivity of 61 and 64 in N2a cells at three tested concentrations (10, 25, and 50 μM). Toxicity of the compounds was monitored in both cell lines, and most of them were non-toxic up to 50 μM in a 6 h treatment.

[5] = Microsomal stability screen, human; settings: 1 μM
SIRT2 = target: T3, SIRT2 (Homo sapiens, UniProt Q8IXJ6); assay: Fluor-de-Lys biochemical sirtuin deacetylation assay, SIRT2; settings: for inhibition at 10 µM: sulfone, sulfoxide, thioether derivatives of C2-8 scaffold
T3 construct: recombinant active enzymes SIRT1, SIRT2, and the catalytically active fragment of SIRT3
T3 sequence (Q8IXJ6 1-389): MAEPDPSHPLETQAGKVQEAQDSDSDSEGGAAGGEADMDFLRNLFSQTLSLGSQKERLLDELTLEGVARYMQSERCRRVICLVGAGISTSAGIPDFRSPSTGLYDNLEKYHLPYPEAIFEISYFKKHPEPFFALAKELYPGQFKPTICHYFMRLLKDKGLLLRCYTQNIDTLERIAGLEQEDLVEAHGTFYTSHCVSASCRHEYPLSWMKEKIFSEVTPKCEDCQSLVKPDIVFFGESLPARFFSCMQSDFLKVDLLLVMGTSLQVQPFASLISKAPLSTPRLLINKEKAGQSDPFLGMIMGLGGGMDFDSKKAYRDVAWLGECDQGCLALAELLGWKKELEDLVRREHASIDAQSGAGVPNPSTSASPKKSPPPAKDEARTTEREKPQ

PBS Express solubility = settings: aqueous buffer, kinetic from dmso stock
[6] = Microsomal intrinsic clearance, mouse; settings: for microsomal CLint at 1 μM / half-life at 1 μM: mouse, microsomes
[7] = Microsomal intrinsic clearance, human; settings: for microsomal CLint at 1 μM / half-life at 1 μM: human, microsomes
polyQ aggregation = settings: cell-based model; read-out: suppression of aggregation, EC50; cited from earlier work
htt aggregation = settings: 140 CAG knock-in model of HD; cited from earlier work
[8] = system: huntingtin (htt) aggregation; settings: R6/2 mice; cited from earlier work
[9] = in vivo; cited from earlier work

SIRT1 inhibition (SIRT1): minimal SIRT1 inhibition
Compound: CN(c1ccc(F)cc1)S(=O)(=O)c1cccc(C(=O)Nc2ccc(Cl)cn2)c1 [Compound 43, N-(5-chloropyridin-2-yl)-3-(N-(4-fluorophenyl)-N-methylsulfamoyl)benzamide]

SIRT3 inhibition [2]: minimal SIRT3 inhibition
Compound: CN(c1ccc(Cl)cc1)S(=O)(=O)c1cccc(C(=O)Nc2ccc(O)cn2)c1 [Compound 58, 3-(N-(4-chlorophenyl)-N-methylsulfamoyl)-N-(5-hydroxypyridin-2-yl)benzamide]

Mean remaining parent NADPH-free (%) [3]: 100%
Mean remaining parent with NADPH (%) [3]: 4%
Mean remaining parent NADPH-free (%) [5]: 112%
Mean remaining parent with NADPH (%) [5]: 2%
Compound: CN(c1ccc(Cl)cc1)S(=O)(=O)c1cccc(C(=O)Nc2ccc(S(C)(=O)=O)cc2)c1 [Compound 61, 3-(N-(4-Chlorophenyl)-N-methylsulfamoyl)-N-(4-(methylsulfonyl)phenyl)benzamide]
increase in α-tubulin K40 acetylation [4]: dose-dependent increase

Mean remaining parent NADPH-free (%) [3]: 91%
Mean remaining parent with NADPH (%) [3]: 0%
Mean remaining parent NADPH-free (%) [5]: 82%
Mean remaining parent with NADPH (%) [5]: 12%
Compound: CC(=O)c1ccc(N(C)S(=O)(=O)c2cccc(C(=O)Nc3ccc(Cl)cn3)c2)cc1 [Compound 103, 3-(N-(4-Acetylphenyl)-N-methylsulfamoyl)-N-(5-chloropyridin-2-yl)benzamide]

SIRT1 inhibition (SIRT1): minimal SIRT1 inhibition
SIRT3 inhibition [2]: minimal SIRT3 inhibition
Compound: CC(=O)c1ccc(N(C)S(=O)(=O)c2cccc(C(=O)Nc3ccc(C#N)cc3)c2)cc1 [Compound 106, 3-(N-(4-Acetylphenyl)-N-methylsulfamoyl)-N-(4-cyanophenyl)benzamide]

inhibition at 10 µM (SIRT2): 40%
potency compared with 59 (SIRT2; SIRT2 assay (61 also cell-based tubulin deacetylation assay)): more potent than 59
SIRT2 inhibition potency compared with AK-1 (SIRT2; dose-response, five doses, side-by-side with AK-1): equal or just slightly better potency
solubility at 45 min (PBS Express solubility): 62.5 µM (≈ 25.7 µg/mL)
solubility at 16 h (PBS Express solubility): 62.5 µM (≈ 25.7 µg/mL)
Mean remaining parent NADPH-free (%) [3]: 100%
Mean remaining parent with NADPH (%) [3]: 68%
Mean remaining parent NADPH-free (%) [5]: 93%
Mean remaining parent with NADPH (%) [5]: 89%
Compound: N#Cc1ccc(NC(=O)c2cccc(S(=O)(=O)Cc3ccc(Cl)cc3)c2)cc1 [Compound 174, 3-((4-Chlorobenzyl)sulfonyl)-N-(4-cyanophenyl)benzamide]

The next lines start with the compound.

Compound: O=C(Nc1cccc([N+](=O)[O-])c1)c1cccc(S(=O)(=O)N2CCCCCC2)c1 [AK-1]
aqueous solubility [1]: low aqueous solubility

Compound: O=C(Nc1cccc(Br)c1)c1cccc(S(=O)(=O)N2CCCCCC2)c1 [AK-7]
aqueous solubility [1]: low aqueous solubility

Compound: O=C(Nc1nccs1)c1cccc(S(=O)(=O)Nc2ccc(Cl)cc2)c1 [Compound 31, 3-(N-(4-chlorophenyl)sulfamoyl)-N-(thiazol-2-yl)benzamide]
inhibition at 10 µM (SIRT1; 10 μM): 65%
SIRT3 inhibition [2]: totally inactive

Compound: O=C(Nc1ccc(Cl)cn1)c1cccc(S(=O)(=O)Nc2ccc(Cl)cn2)c1 [Compound 41, N-(5-chloropyridin-2-yl)-3-(N-(5-chloropyridin-2-yl)sulfamoyl)benzamide]
SIRT3 inhibition [2]: minimal SIRT3 inhibition

Compound: CN(c1ccc(Cl)cc1)S(=O)(=O)c1cccc(C(=O)Nc2ccc(C(F)(F)F)cn2)c1 [Compound 56, 3-(N-(4-chlorophenyl)-N-methylsulfamoyl)-N-(5-(trifluoromethyl)pyridin-2-yl)benzamide]
SIRT1 inhibition (SIRT1): minimal SIRT1 inhibition

Compound: CN(c1ccc(Cl)cc1)S(=O)(=O)c1cccc(C(=O)Nc2ccc(C#N)cc2)c1 [Compound 64, 3-(N-(4-Chlorophenyl)-N-methylsulfamoyl)-N-(4-cyanophenyl)benzamide]
increase in α-tubulin K40 acetylation [4]: dose-dependent increase

Compound: C[S+]([O-])c1ccc(NC(=O)c2cccc(SCc3ccc(Cl)cc3)c2)cc1 (stereo not drawn) [Compound 182, 3-((4-chlorobenzyl)thio)-N-(4-(methylsulfinyl)phenyl)benzamide]
% remaining 60 min ([6]; 1 μM, 60 min): 0.8%
microsomal CLint at 1 μM ([6]; NADPH-dependent CLint): 445 µL/min/mg
half-life at 1 μM ([6]; NADPH-dependent T1/2 (min)): 5.2 min
microsomal CLint at 1 μM ([6]; NADPH-free CLint): 58 µL/min/mg
half-life at 1 μM ([6]; NADPH-free T1/2 (min)): 40 min
inhibition at 10 µM (SIRT2): 60%
solubility at 45 min (PBS Express solubility): 15.6 µM (≈ 6.49 µg/mL)
solubility at 16 h (PBS Express solubility): 15.6 µM (≈ 6.49 µg/mL)
Fraction remaining, last time point (%) (Plasma half life; Mouse plasma, 5 μM): 62%
half-life at 5 μM (Plasma half life; mouse, plasma): 89 min
% remaining 60 min ([7]; 1 μM, 60 min): 5.3%
microsomal CLint at 1 μM ([7]; NADPH-dependent CLint): 241 µL/min/mg
half-life at 1 μM ([7]; NADPH-dependent T1/2 (min)): 9.6 min
microsomal CLint at 1 μM ([7]; NADPH-free CLint): 39 µL/min/mg
half-life at 1 μM ([7]; NADPH-free T1/2 (min)): 59 min

Compound: O=C(Nc1ccc(Br)cc1)c1cccc(S(=O)(=O)Nc2ccc(Br)cc2)c1 [Compound C2-8]
EC50 (polyQ aggregation): 50 nM
reduction of htt aggregation (htt aggregation): 50%
inhibition of huntingtin (htt) aggregation in the striatum [8]: 25-30%
aqueous solubility [1]: low aqueous solubility
toxicity in acute and chronic tolerability studies [9]: not toxic

Compound: CC(C)[N+](C)(CCOC(=O)C1c2ccccc2Oc2ccccc21)C(C)C [Propantheline, reference compound]
Fraction remaining, last time point (%) (Plasma half life; Mouse plasma, 5 μM): 3.4%
Plasma T1/2 (Plasma half life; Mouse plasma, 5 μM): 18 min
